In the assay the target is T1, SIRT1 (Homo sapiens, UniProt Q96EB6).
T1 sequence (Q96EB6 1-747): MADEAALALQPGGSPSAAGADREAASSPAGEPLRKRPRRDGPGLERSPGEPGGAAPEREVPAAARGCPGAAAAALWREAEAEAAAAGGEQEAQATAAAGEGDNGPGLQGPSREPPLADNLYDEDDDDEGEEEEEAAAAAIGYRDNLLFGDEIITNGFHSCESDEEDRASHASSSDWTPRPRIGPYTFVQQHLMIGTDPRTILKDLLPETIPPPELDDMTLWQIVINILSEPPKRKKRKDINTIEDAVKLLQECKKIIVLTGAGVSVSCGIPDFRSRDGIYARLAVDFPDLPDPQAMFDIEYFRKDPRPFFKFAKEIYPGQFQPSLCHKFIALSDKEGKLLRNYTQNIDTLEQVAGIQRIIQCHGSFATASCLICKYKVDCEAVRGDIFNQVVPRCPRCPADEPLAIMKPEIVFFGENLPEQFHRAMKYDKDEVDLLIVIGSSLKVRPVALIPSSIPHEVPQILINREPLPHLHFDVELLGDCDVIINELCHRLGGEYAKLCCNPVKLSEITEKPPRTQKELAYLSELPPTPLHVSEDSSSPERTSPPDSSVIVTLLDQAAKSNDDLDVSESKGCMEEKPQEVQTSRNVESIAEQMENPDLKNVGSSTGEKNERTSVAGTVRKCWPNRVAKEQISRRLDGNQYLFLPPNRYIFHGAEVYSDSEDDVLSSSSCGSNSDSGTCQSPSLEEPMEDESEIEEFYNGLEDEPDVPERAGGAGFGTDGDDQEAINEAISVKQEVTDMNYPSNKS
The experiment in a line: Mass spectrometry based SIRT1 deacetylase activation assay (acetylated p53-derived peptide substrate). It counts as biochemical. As to conditions: 0.5 μM peptide substrate, 120 μM βNAD+, 10 nM SIRT1, 25 minutes at 25° C.
Consider `O=C(Nc1cccnc1)c1cncc2nc(-c3ccc(N4CCCC4)cc3C(F)F)[nH]c12` [Compound 812], for which the EC1.5 result is listed as “A (EC1.5<1.0 uM)” and the “Fold Act. (percent maximum fold activation)” value is “A (Fold activation >200%)”.

As to `O=C(Nc1ccc(CN2CCCC2)cc1)c1cccc2[nH]c(-c3ccc(F)cc3C(F)(F)F)nc12` [Compound 813], the EC1.5 entry is “A (EC1.5<1.0 uM)” and the “Fold Act. (percent maximum fold activation)” value is reported as “A (Fold activation >200%)”.

Turning to `Cc1ncccc1-c1nc2c(C(=O)Nc3cccc(CN4CCOCC4)n3)cccc2[nH]1` [Compound 814, 2-(2-methylpyridin-3-yl)-N-(6-(morpholinomethyl)pyridin-2-yl)-1H-benzo[d]imidazole-4-carboxamide], the EC1.5 entry was “A (EC1.5<1.0 uM)” and the “Fold Act. (percent maximum fold activation)” value is given as “A (Fold activation >200%)”.

Consider `Cc1ccc(-c2nc3c(C(=O)Nc4cccc(CN5CCOCC5)n4)cccc3[nH]2)cn1` [Compound 815, 2-(6-methylpyridin-3-yl)-N-(6-(morpholinomethyl)pyridin-2-yl)-1H-benzo[d]imidazole-4-carboxamide], for which the EC1.5 entry is given as “A (EC1.5<1.0 uM)” and the “Fold Act. (percent maximum fold activation)” value was “A (Fold activation >200%)”.

Regarding `Cc1cc(-c2nc3c(C(=O)Nc4cccc(CN5CCOCC5)n4)cccc3[nH]2)ccn1` [Compound 816, 2-(2-methylpyridin-4-yl)-N-(6-(morpholinomethyl)pyridin-2-yl)-1H-benzo[d]imidazole-4-carboxamide], the EC1.5 result is “A (EC1.5<1.0 uM)” and the “Fold Act. (percent maximum fold activation)” value was “A (Fold activation >200%)”.

On to `O=C(Nc1cccc(CN2CCOCC2)n1)c1cccc2[nH]c(-c3ccccc3C(F)F)nc12` [Compound 817], for which the EC1.5 entry is “A (EC1.5<1.0 uM)” and the “Fold Act. (percent maximum fold activation)” value is listed as “A (Fold activation >200%)”.

With `O=C(Nc1cccc(CN2CCOCC2)n1)c1cccc2[nH]c(-c3ccc(F)cc3C(F)F)nc12` [Compound 818], the EC1.5 result was “A (EC1.5<1.0 uM)” and the “Fold Act. (percent maximum fold activation)” value is “A (Fold activation >200%)”.

`O=C(Nc1cccc(CN2CCOCC2)n1)c1cccc2[nH]c(-c3ccc(Cl)cc3C(F)F)nc12` [Compound 819]: the EC1.5 entry was “A (EC1.5<1.0 uM)” and the “Fold Act. (percent maximum fold activation)” value was “A (Fold activation >200%)”.

As to `O=C(Nc1nc(CN2CCOCC2)cs1)c1cccc2[nH]c(-c3cc(F)cc(F)c3)nc12` [Compound 820], the EC1.5 entry is recorded as “B (EC1.5 1-25 uM)” and the “Fold Act. (percent maximum fold activation)” value is reported as “A (Fold activation >200%)”.

In the case of `O=C(Nc1nccs1)c1cc(F)cc2nc(-c3ccc(Cl)cc3C(F)F)[nH]c12` [Compound 821], the EC1.5 entry is on record as “A (EC1.5<1.0 uM)” and the “Fold Act. (percent maximum fold activation)” value is given as “A (Fold activation >200%)”.

On to `Cc1cnc(NC(=O)c2cc(F)cc3nc(-c4ccc(Cl)cc4C(F)F)[nH]c23)s1` [Compound 822], for which the EC1.5 result is “A (EC1.5<1.0 uM)” and the “Fold Act. (percent maximum fold activation)” value is on record as “A (Fold activation >200%)”.

Regarding `O=C(Nc1ccccn1)c1cc(F)cc2nc(-c3ccc(Cl)cc3C(F)F)[nH]c12` [Compound 823], the EC1.5 entry is “A (EC1.5<1.0 uM)” and the “Fold Act. (percent maximum fold activation)” value was “A (Fold activation >200%)”.

For `O=C(Nc1nccs1)c1cc(F)cc2nc(-c3ccc(F)cc3C(F)F)[nH]c12` [Compound 824], the EC1.5 entry was “A (EC1.5<1.0 uM)” and the “Fold Act. (percent maximum fold activation)” value is on record as “A (Fold activation >200%)”.

`Cc1cnc(NC(=O)c2cc(F)cc3nc(-c4ccc(F)cc4C(F)F)[nH]c23)s1` [Compound 825]: the EC1.5 entry is “A (EC1.5<1.0 uM)” and the “Fold Act. (percent maximum fold activation)” value is “A (Fold activation >200%)”.

For `O=C(Nc1ccccn1)c1cc(F)cc2nc(-c3ccc(F)cc3C(F)F)[nH]c12` [Compound 826], the EC1.5 entry was “A (EC1.5<1.0 uM)” and the “Fold Act. (percent maximum fold activation)” value is listed as “A (Fold activation >200%)”.

Turning to `O=C(Nc1nccs1)c1cccc2[nH]c(-c3ccc(CN4CCCC4)cc3C(F)(F)F)nc12` [Compound 828, 2-(4-(pyrrolidin-1-ylmethyl)-2-(trifluoromethyl)phenyl)-N-(thiazol-2-yl)-1H-benzo[d]imidazole-4-carboxamide], the EC1.5 entry is “A (EC1.5<1.0 uM)” and the “Fold Act. (percent maximum fold activation)” value is “A (Fold activation >200%)”.

With `O=C(Nc1cccnc1)c1cc(F)cc2[nH]c(-c3ccc(OC[C@H](O)CO)cc3C(F)F)nc12` [Compound 829], the EC1.5 entry is “A (EC1.5<1.0 uM)” and the “Fold Act. (percent maximum fold activation)” value is reported as “A (Fold activation >200%)”.

As for `O=C(Nc1ccccn1)c1cc(F)cc2[nH]c(-c3ccc(OC[C@H](O)CO)cc3C(F)F)nc12` [Compound 830], the EC1.5 result was “A (EC1.5<1.0 uM)” and the “Fold Act. (percent maximum fold activation)” value is given as “A (Fold activation >200%)”.

With `O=C(Nc1nccs1)c1cc(F)cc2[nH]c(-c3ccc(OC[C@@H](O)CO)cc3C(F)F)nc12` [Compound 831], the EC1.5 entry is recorded as “A (EC1.5<1.0 uM)” and the “Fold Act. (percent maximum fold activation)” value is “A (Fold activation >200%)”.

`O=C(Nc1nccs1)c1cc(F)cc2nc(-c3ccccc3C(F)F)[nH]c12` [Compound 832]: the EC1.5 entry is “A (EC1.5<1.0 uM)” and the “Fold Act. (percent maximum fold activation)” value is “A (Fold activation >200%)”.

Regarding `Cc1cnc(NC(=O)c2cc(F)cc3nc(-c4ccccc4C(F)F)[nH]c23)s1` [Compound 833], the EC1.5 entry is “A (EC1.5<1.0 uM)” and the “Fold Act. (percent maximum fold activation)” value is listed as “A (Fold activation >200%)”.

For the compound `O=C(Nc1ccccn1)c1cc(F)cc2nc(-c3ccccc3C(F)F)[nH]c12` [Compound 834], the EC1.5 entry is given as “A (EC1.5<1.0 uM)” and the “Fold Act. (percent maximum fold activation)” value is recorded as “A (Fold activation >200%)”.

With `O=C(Nc1nccs1)c1cc(F)cc2nc(-c3cc(F)ccc3C(F)F)[nH]c12` [Compound 835], the EC1.5 entry was “A (EC1.5<1.0 uM)” and the “Fold Act. (percent maximum fold activation)” value is recorded as “A (Fold activation >200%)”.

In the case of `Cc1cnc(NC(=O)c2cc(F)cc3nc(-c4cc(F)ccc4C(F)F)[nH]c23)s1` [Compound 836], the EC1.5 entry is “A (EC1.5<1.0 uM)” and the “Fold Act. (percent maximum fold activation)” value is “A (Fold activation >200%)”.

Regarding `O=C(Nc1ccccn1)c1cc(F)cc2nc(-c3cc(F)ccc3C(F)F)[nH]c12` [Compound 837], the EC1.5 result is “A (EC1.5<1.0 uM)” and the “Fold Act. (percent maximum fold activation)” value is “A (Fold activation >200%)”.

For the compound `O=C(Nc1ccccn1)c1cccc2[nH]c(-c3ccc(CN4CCCC4)cc3C(F)(F)F)nc12` [Compound 838, N-(pyridin-2-yl)-2-(4-(pyrrolidin-1-ylmethyl)-2-(trifluoromethyl)phenyl)-1H-benzo[d]imidazole-4-carboxamide], the EC1.5 entry is given as “A (EC1.5<1.0 uM)” and the “Fold Act. (percent maximum fold activation)” value is reported as “A (Fold activation >200%)”.

For `O=C(Nc1ccccn1)c1cc(F)cc2[nH]c(-c3ccc(OC[C@@H](O)CO)cc3C(F)F)nc12` [Compound 840], the EC1.5 entry is “A (EC1.5<1.0 uM)” and the “Fold Act. (percent maximum fold activation)” value was “A (Fold activation >200%)”.

Turning to `O=C(Nc1cccnc1)c1cc(F)cc2[nH]c(-c3ccc(OC[C@@H](O)CO)cc3C(F)F)nc12` [Compound 841], the EC1.5 result is “A (EC1.5<1.0 uM)” and the “Fold Act. (percent maximum fold activation)” value was “A (Fold activation >200%)”.

Consider `Cc1ncccc1-c1nc2c(C(=O)Nc3nc(CN4CCOCC4)cs3)cccc2[nH]1` [Compound 842], for which the EC1.5 entry was “A (EC1.5<1.0 uM)” and the “Fold Act. (percent maximum fold activation)” value is listed as “A (Fold activation >200%)”.

`Cc1ccc(-c2nc3c(C(=O)Nc4nc(CN5CCOCC5)cs4)cccc3[nH]2)cn1` [Compound 843]: the EC1.5 entry is “A (EC1.5<1.0 uM)” and the “Fold Act. (percent maximum fold activation)” value was “A (Fold activation >200%)”.

On to `Cc1cc(-c2nc3c(C(=O)Nc4nc(CN5CCOCC5)cs4)cccc3[nH]2)ccn1` [Compound 844], for which the EC1.5 result is “A (EC1.5<1.0 uM)” and the “Fold Act. (percent maximum fold activation)” value was “A (Fold activation >200%)”.

As to `O=C(Nc1nc(CN2CCOCC2)cs1)c1cccc2[nH]c(-c3ccccc3C(F)F)nc12` [Compound 845], the EC1.5 result is “A (EC1.5<1.0 uM)” and the “Fold Act. (percent maximum fold activation)” value was “A (Fold activation >200%)”.

Take `O=C(Nc1nc(CN2CCOCC2)cs1)c1cccc2[nH]c(-c3ccc(F)cc3C(F)F)nc12` [Compound 846]: the EC1.5 result is recorded as “A (EC1.5<1.0 uM)” and the “Fold Act. (percent maximum fold activation)” value was “A (Fold activation >200%)”.

For the compound `Cc1nc(C)c(-c2nc3c(C(=O)Nc4cccc(CN5CCOCC5)n4)cccc3[nH]2)s1` [Compound 847], the EC1.5 result is listed as “A (EC1.5<1.0 uM)” and the “Fold Act. (percent maximum fold activation)” value is listed as “A (Fold activation >200%)”.

Consider `Cc1nc(C)c(-c2nc3c(C(=O)Nc4nc(CN5CCOCC5)cs4)cccc3[nH]2)s1` [Compound 848], for which the EC1.5 entry was “A (EC1.5<1.0 uM)” and the “Fold Act. (percent maximum fold activation)” value is “A (Fold activation >200%)”.

Values taken from patent US8846947B2, “Benzimidazoles and related analogs as sirtuin modulators” (GlaxoSmithKline LLC, priority 2008, dated 2014).
